Numbers after ± are expanded uncertainties.
Experiment: xn = mol fraction of the nth substance listed
Details: 298.15 K, Liquid

CCO [ethanol] + O
mass density [kg/m3]
Details | 100 kPa | 10000 kPa
x1 = 0.003 | 995.3 ± 0.2 | 999.8 ± 0.3
x1 = 0.0042 | 994.5 ± 0.2 | 998.9 ± 0.2
x1 = 0.0082 | 993 ± 0.2 | 997.3 ± 0.2
x1 = 0.0119 | 991.5 ± 0.2 | 995.8 ± 0.2
x1 = 0.0158 | 989.8 ± 0.3 | 994 ± 0.3
x1 = 0.0184 | 988.4 ± 0.2 | 992.6 ± 0.2
x1 = 0.0219 | 987.6 ± 0.2 | 991.7 ± 0.2
x1 = 0.0255 | 986 ± 0.3 | 990.2 ± 0.3
x1 = 0.0279 | 984.7 ± 0.2 | 988.7 ± 0.2
x1 = 0.0315 | 984 ± 0.2 | 988 ± 0.2
x1 = 0.0366 | 981.6 ± 0.3 | 985.7 ± 0.3
x1 = 0.0392 | 980.7 ± 0.2 | 984.7 ± 0.3
x1 = 0.0439 | 979.2 ± 0.3 | 983.3 ± 0.3
x1 = 0.0483 | 977.5 ± 0.2 | 981.6 ± 0.3
x1 = 0.0516 | 977.1 ± 0.2 | 981 ± 0.3
x1 = 0.0559 | 975.8 ± 0.3 | 979.8 ± 0.3
x1 = 0.06 | 974.5 ± 0.3 | 978.5 ± 0.3
x1 = 0.0652 | 972.9 ± 0.3 | 976.9 ± 0.3
x1 = 0.0679 | 972.2 ± 0.3 | 976.1 ± 0.3
x1 = 0.0722 | 971 ± 0.3 | 974.9 ± 0.3
x1 = 0.0801 | 968.6 ± 0.3 | 972.4 ± 0.3
x1 = 0.084 | 967.9 ± 0.3 | 971.8 ± 0.3
x1 = 0.0879 | 966.7 ± 0.3 | 970.6 ± 0.3
x1 = 0.0926 | 965.6 ± 0.3 | 969.3 ± 0.3
x1 = 0.0958 | 964.6 ± 0.3 | 968.5 ± 0.3
x1 = 0.1006 | 963.2 ± 0.3 | 967.1 ± 0.3
x1 = 0.1111 | 960.2 ± 0.3 | 964.1 ± 0.3
x1 = 0.1225 | 956.8 ± 0.3 | 960.7 ± 0.3
x1 = 0.1296 | 954.9 ± 0.3 | 958.8 ± 0.3
x1 = 0.1402 | 951.8 ± 0.3 | 955.8 ± 0.3
x1 = 0.151 | 948.4 ± 0.3 | 952.5 ± 0.3
x1 = 0.1601 | 945.6 ± 0.3 | 949.8 ± 0.3
x1 = 0.1703 | 942.5 ± 0.3 | 946.7 ± 0.3
x1 = 0.18 | 939.8 ± 0.3 | 943.9 ± 0.3
x1 = 0.1903 | 936.5 ± 0.3 | 940.9 ± 0.3
x1 = 0.1996 | 933.5 ± 0.3 | 938 ± 0.3
x1 = 0.2269 | 925.4 ± 0.3 | 930 ± 0.3
x1 = 0.2502 | 918.5 ± 0.3 | 923.3 ± 0.3
x1 = 0.2745 | 911.7 ± 0.3 | 916.6 ± 0.3
x1 = 0.3009 | 904.5 ± 0.3 | 909.6 ± 0.3
x1 = 0.35 | 891.9 ± 0.3 | 897.1 ± 0.3
x1 = 0.4034 | 879.4 ± 0.3 | 884.9 ± 0.4
x1 = 0.4501 | 868.8 ± 0.3 | 874.7 ± 0.4
x1 = 0.498 | 859.3 ± 0.3 | 865.4 ± 0.4
x1 = 0.5501 | 849.5 ± 0.3 | 855.8 ± 0.4
x1 = 0.5998 | 840.9 ± 0.3 | 847.4 ± 0.4
x1 = 0.6489 | 832.7 ± 0.3 | 839.5 ± 0.4
x1 = 0.6967 | 825.2 ± 0.3 | –
x1 = 0.7475 | 818.2 ± 0.3 | –
x1 = 0.7996 | 810.9 ± 0.3 | –
x1 = 0.8484 | 804.4 ± 0.3 | –
x1 = 0.8993 | 798 ± 0.3 | –
x1 = 0.9503 | 791.7 ± 0.4 | –
x1 = 1 | 785.7 ± 0.4 | –
